The test concerns primary hepatocytes of C57bl/6j mice. The test can be described thus: Glucose output in primary hepatocytes of C57bl/6j mice. Type of test: cell-based. As to conditions: Hepatocyte, 6 hours, mouse primary hepatocytes, corrected by protein concentration, FIG. 3, read-out: gluconeogenesis inhibition (glucose output) relative to the negative control. On the procedure: 2. To Investigate the Effect of Compounds on Glucose Output in Primary Hepatocytes of C57bl/6j Mice.
(1) Test purpose: To test whether the fatty acid compounds can inhibit hepatocyte glucose output on primary hepatocytes of C57bl/6j mice.
(2) Experimental principle: Small molecule compounds act on mouse primary hepatocytes, inhibit gluconeogenesis, and then affect the glucose output of cells into the medium. The effect of compounds on gluconeogenesis is evaluated by detecting the glucose concentration in the medium after the treatment of different compounds.
(3) Detection reagent: The glucose detection kit was purchased from Shanghai Mind Bioengineering Co., Ltd.
1) the primary hepatocytes of C57bl/6j mice were isolated and inoculated into a 24-well plate at a density of 300,000 per mL. After grew adhering to the wall for 6 hours, they were replaced on serumfree highsugar medium for 12 hours. Compounds 1 to 30 prepared by the present invention (in 1‰ DMSO, 50 μM) were separately added to treat for 6 hours (1‰ DMSO as a negative control). The medium was gently mixed, 50 μL of supernatant was taken from every well, and glucose concentration was measured by a glucose oxidase assay kit.
2) The medium was discarded. The cells was washed with PBS, spin dried, added 200 μL of 250 mM sodium hydroxide solution. […] The protein concentration was determined using coomassie blue staining. […]

We go through one molecule from patent US10414713B2, “Fatty acid compound, preparation method therefor and use therefor” (SHANGHAI INSTITUTE OF MATERIA MEDICA, CHINESE ACADEMY OF …, priority 2016, dated 2019).

Each structure is given as a SMILES string.

As a reminder, the inhibition is the drop in the measured response relative to a control, in per cent.

Consider `CCC(C)(CCCCCCC=CCCCCCCCC(C)(CC)C(=O)O)C(=O)O` (stereo not shown) [Compound 20], for which the inhibition at 50 µM was above 50%.
